Test results published in US12655130B2 (ASSEMBLY BIOSCIENCES, INC., priority 2020, dated 2026).

System: HBV viral load (viral production from HepAD38 cells)
Assay: Activity of test compounds on viral production from HepAD38 cells (viral load by qPCR of HBV core sequence)
Type: cell-based
Conditions: Hepatitis B virus, HePAD38, 120 h, viral load lowering, 5 days, qPCR of supernatant, read-out: VL HepAD38 EC50 range
Method in brief: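 EC50 and CC50 come from four-parameter logistic fits: HBV core DNA in supernatant by TaqMan qPCR against DNA standards, normalised to DMSO controls, and cell viability by CellTiter-Glo. Cells were plated at 50,000/well without tetracycline (2% FBS) and exposed to compounds (highest 10 μM) for 5 days, 37 °C.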

Row | SMILES | EC50
1 | Cn1cnc(C2CC3CC(O)(Cc4c(Br)cnn4C)CC3C2)c1C(=O)Nc1ccc(F)c(Cl)c1 (centres unmarked) [Example 123, 4-(5-((4-bromo-1-methyl-1H-pyrazol-5-yl)methyl)-5-hydroxyoctahydropentalen-2-yl)-N-(3-chloro-4-fluorophenyl)-1-methyl-1H-imidazole-5-carboxamide] | < 10 nM
2 | Cn1cnc(C2CC3CC(O)(c4cnn(C)c4C(F)(F)F)CC3C2)c1C(=O)Nc1ccc(F)c(Cl)c1 (centres unmarked) [Example 141, N-(3-Chloro-4-fluorophenyl)-4-(5-hydroxy-5-(1-methyl-5-(trifluoromethyl)-1H-pyrazol-4-yl)octahydropentalen-2-yl)-1-methyl-1H-imidazole-5-carboxamide] | < 10 nM
3 | CC(CO)Nc1cc(C2(O)CC3CC(c4ncn(C)c4C(=O)Nc4ccc(F)c(Cl)c4)CC3C2)n(C)n1 (centres unmarked) [Example 217, N-(3-Chloro-4-fluorophenyl)-4-(5-hydroxy-5-(3-((1-hydroxypropan-2-yl)amino)-1-methyl-1H-pyrazol-5-yl)octahydropentalen-2-yl)-1-methyl-1H-imidazole-5-carboxamide] | < 10 nM
4 | Cn1cnc(C2CC3CC(NC4CC4)CC3C2)c1C(=O)Nc1ccc(F)c(Cl)c1 (single isomer, unassigned) [Example 44, 5-[-5-(Cyclopropylamino)-1,2,3,3a,4,5,6,6a-octahydropentalen-2-yl]-N-(3-chloro-4-fluorophenyl)-3-methyl-4-imidazolecarboxamide] | 10 to 50 nM
5 | Cn1cnc(C2CC3CC(O)(c4cc(Cl)nn4C)CC3C2)c1C(=O)Nc1ccc(F)c(Cl)c1 (single isomer, unassigned) [Example 73, 4-(5-(3-Chloro-1-methyl-1H-pyrazol-5-yl)-5-hydroxyoctahydropentalen-2-yl)-N-(3-chloro-4-fluorophenyl)-1-methyl-1H-imidazole-5-carboxamide] | < 10 nM
6 | Cn1cnc(C2CC3CC(O)(c4cc([N+](=O)[O-])n[nH]4)CC3C2)c1C(=O)Nc1ccc(F)c(Cl)c1 (centres unmarked) [Example 146, N-(3-Chloro-4-fluorophenyl)-4-(5-hydroxy-5-(3-nitro-1H-pyrazol-5-yl)octahydropentalen-2-yl)-1-methyl-1H-imidazole-5-carboxamide] | < 10 nM
7 | CN(C)c1cc(C2(O)CC3CC(c4ncn(C)c4C(=O)Nc4ccc(F)c(Cl)c4)CC3C2)n(C)n1 (centres unmarked) [Example 199, N-(3-Chloro-4-fluorophenyl)-4-(5-(3-(dimethylamino)-1-methyl-1H-pyrazol-5-yl)-5-hydroxyoctahydropentalen-2-yl)-1-methyl-1H-imidazole-5-carboxamide] | < 10 nM
8 | O=C(Nc1ccc(F)c(Cl)c1)c1[nH]cnc1C1CC2CC(O)CC2C1 (centres unmarked) [Example 223] | 50 to 500 nM
9 | Cn1cnc(C2CC3CC(O)(Cc4cc(C(F)(F)F)nn4C)CC3C2)c1C(=O)Nc1ccc(F)c(Cl)c1 (centres unmarked) [Example 155, N-(3-Chloro-4-fluorophenyl)-4-(5-hydroxy-5-((1-methyl-3-(trifluoromethyl)-1H-pyrazol-5-yl)methyl)octahydropentalen-2-yl)-1-methyl-1H-imidazole-5-carboxamide] | < 10 nM
10 | Cn1cnc(C2CC3CC(O)(C(F)(F)F)CC3C2)c1C(=O)Nc1ccc(F)c(Cl)c1 (centres unmarked) [Example 12, N-(3-Chloro-4-fluorophenyl)-4-(5-hydroxy-5-(trifluoromethyl)octahydropentalen-2-yl)-1-methyl-1H-imidazole-5-carboxamide] | < 10 nM

Same assay, conditions: viral load lowering, 5 days, qPCR of supernatant, read-out: VL HepAD38 EC50 range

Row | SMILES | EC50
11 | Cn1cnc(C2CC3CC(O)(c4cc(OCC(O)CO)nn4C)CC3C2)c1C(=O)Nc1ccc(F)c(Cl)c1 (single isomer, unassigned) [Example 206, N-(3-Chloro-4-fluorophenyl)-4-(5-(3-(2,3-dihydroxypropoxy)-1-methyl-1H-pyrazol-5-yl)-5-hydroxyoctahydropentalen-2-yl)-1-methyl-1H-imidazole-5-carboxamide] | < 10 nM
